Tests used:
[1] = molecular target: T1, Ran-GTP (Homo sapiens, UniProt P62826); test: Ran activation (Ran-GTP pull-down) assay in TOV112D cells; type: cell-based; details: 1 hour treatment, vs DMSO
Protocol: Cells were seeded onto 6-well tissue culture plates in such a way that cell confluence reaches approximately 70% the day of experiment. The day of experiment cells were treated for 1 hour with the indicated compounds prior to protein extraction and quantification. Assays were performed using the Ran activation assay kit (Cell Biolabs). Briefly, 400 μg of lysates were incubated for one hour at 4° C. with agarose beads conjugated to RANBP1, which specifically binds Ran-GTP. Beads were pelleted, washed, and re-suspended in SDS-PAGE buffer, followed by immunoblotting with an anti-Ran antibody.

[2] = tested on: 53BP1; test: 53BP1 immunofluorescence after gamma-irradiation in TOV112D cells; type: cell-based, human
[3] = tested on: prostate cancer cell lines (LNCaP, 22RV1, PC3, DU145); test: Cell proliferation, prostate cancer cell lines; type: cell-based
[4] = molecular target: Cdc42 (Homo sapiens, UniProt P60953); test: Cdc42 activation ELISA in TOV112D cells; type: cell-based; details: vs DMSO
[5] = molecular target: T2, recombinant human Ran protein (Homo sapiens, UniProt P62826); test: Surface Plasmon Resonance (SPR) binding to immobilized Ran; details: different compound concentrations, reached saturation
T2 construct: Recombinant Ran protein was purchased from Sigma-Aldrich Inc. (R3152)
Protocol: SPR experiments were carried out using the Biacore 3000 system. Recombinant Ran protein was purchased from Sigma-Aldrich Inc. (R3152). The running buffer contained PBS, pH7.4, 1 mM GDP, 2 mM MgCl2 and 0.2% DMSO. The regeneration buffer contained 10 mM glycine (pH 2.5). Ran-GDP protein was immobilized onto a CM5 chip; samples of compounds in running buffer were injected at 30 μL/min for 10 minutes contact time followed by 5 minutes regeneration. Kd was calculated using the GraphPad Prism 5 software.

[6] = molecular target: T1, Ran-GTP; test: Ran-GTP immunofluorescence in TOV112D cells; type: cell-based; details: TOV112D cells vs DMSO-treated
Protocol: M36 and R28-treated and control TOV112D cells grown on coverslips were washed with 1×PBS, fixed in 4% paraformaldehyde and permeabilized with 0.25% Triton X-100 (Sigma-Aldrich Inc.). After blocking (4% BSA and 4% FBS in PBS), coverslips were incubated with the monoclonal anti-RanGTP antibody (26915, NewEastBioscences) diluted 1:100 in blocking buffer for 2 hours at room temperature. Subsequently, samples were incubated with Cy-5 secondary antibody (1:500, Life Technologies Inc.) for 1 hour and coverslips were mounted onto slides using Prolong® Gold anti-fade reagent with DAPI (Life Technologies Inc.). Samples were visualized under a Zeiss microscope (Zeiss observer Z1) with a 20× objective.

[7] = tested on: TOV112D cells; test: Clonogenic survival assay, TOV112D; type: cell-based, human
Protocol: (§1) The human EOC cell lines used (TOV81D, TOV112D, OV90, TOV21G, OV866(2), TOV1369(R), OV1369(R2), TOV1946, OV1946, TOV2295(R), OV4485) were derived in our laboratory from patients' tumors (TOV) or ascites (OV). All EOC cell lines were maintained in a low oxygen condition of 7% O2 and 5% CO2 and grown in OSE medium (Wisent, Montreal, QC) supplemented with 10% FBS (Wisent), 0.5 μg/mL amphotericin B (Wisent) and 50 μg/mL gentamicin (Life Technologies Inc., Burlington, ON). The human retinal epithelial cell line ARPE-19 was purchased from American Type Culture Collection (ATCC, Manassas, Va.) and maintained in DMEM-F12 (Wisent) supplemented with 10% FBS (Wisent), 0.5 μg/mL amphotericin B (Wisent) and 50 μg/mL gentamicin (Life Technologies Inc.).
(§2) Clonogenic assays were performed as previously described. Colonies were counted under a stereo microscope and reported as percent of control. IC50 values were determined using Graph Pad Prism 5 software (GraphPad Software Inc., San Diego, Calif.). Each experiment was performed in duplicate and repeated three times. Sensitivity of the cell lines to small molecules inhibitors of Ran was assessed using a concentration range of 0-50 μM.
(§3) Small molecules inhibitors of Ran were dissolved in 100% dimethyl sulfoxide (DMSO) and then further diluted in complete culture media for in vitro experiments. Drugs were added 24 hours after seeding.

[8] = Tolerance test in NRG mice; type: in vivo; details: daily i.p. 75 mg/kg for 15 days
Protocol: For the tolerance test, M36 and QR20 compounds were dissolved in DMSO 10%, Kolliphor® EL 10%, PEG-400 20% and PBS 60% and injected intraperitoneally into 6-week-old female Nod Rag Gamma (NRG) mice (The Jackson laboratory, Bar Harbor, Me.) daily at 75 mg/kg. During this study, mice (n=3) were monitored for survival and weight loss/gain.

[9] = molecular target: Rac1-GTP (Homo sapiens, UniProt P63000); test: Rac1-GTP pull-down assay; type: cell-based; details: 50 μM M36 (FIG. 7F)
[10] = tested on: TOV112D cells overexpressing DA Ran; test: Cell survival of TOV112D cells transfected with Ran WT or dominant active mutant; type: cell-based, human
[11] = tested on: ARPE-19 cells; test: Clonogenic survival assay, ARPE-19; type: cell-based, human
Protocol: as §1, §2, §3

[12] = tested on: γH2AX foci; test: γH2AX foci immunostaining in TOV112D cells; type: cell-based, human
[13] = tested on: cleaved PARP; test: Apoptosis by PARP cleavage (Western blot); type: cell-based, human; details: 96 hours after treatment
Protocol: Cells were lysed with RIPA buffer containing protease inhibitors. Whole cell lysates were run through a Bradford assay (Thermo Fisher Scientific) for protein quantification. Around 25-50 μg of proteins were separated onto 12.5% SDS-PAGE and transferred onto nitrocellulose membranes. The resultant blots were probed with Ran (1:10000, sc-271376 Santa Cruz Biotechnology, Dallas, Tex.), cleaved PARP (1:1000, #9541, Cell Signaling Technology Inc., Danvers, Mass.), GAPDH (1:2500, #2118, Cell Signaling Technology Inc.) or beta-actin (1:50000, ab6276, Abcam Inc., Toronto, ON, Canada) primary antibodies overnight at 4° C. then with peroxidase-conjugated secondary antibodies for 2 hours at room temperature. Proteins were detected using enhanced chemiluminescence (Thermo Fisher Scientific).

[14] = molecular target: RhoA (Homo sapiens, UniProt P61586); test: RhoA activation ELISA in TOV112D cells; type: cell-based; details: vs DMSO
[15] = tested on: other aneuploid EOC cells; test: IncuCyte cell proliferation assay, other aneuploid EOC cell lines; type: cell-based, human; details: 40 μM
Protocol: as §1
Cells (2,000 cells/well) were plated in a 96-well plate. The next day, compounds were added at the indicated concentrations. Following treatment, cell confluence was imaged by phase contrast using the IncuCyte live cell monitoring system (Essen BioScience, Ann Arbor, Mich.). Frames were captured at 2-hour intervals using a 10× objective. For Ran knock down experiments, cells were seeded in a 96-well plate (4,000 cells/well) directly after transfection. Cell confluence monitoring started the next day as described above.
as §3

[16] = tested on: RAD51/Geminin foci (HR); test: RAD51/Geminin foci after gamma-irradiation in TOV112D cells; type: cell-based, human
[17] = Pharmacokinetics in CD1 mice; type: in vivo
Protocol: For the pharmacokinetic studies, 6-week-old female CD1 mice (Charles River laboratories, Senneville, QC, Canada) received a single intravenous or intraperitoneal injection of M36 or QR20 (50 mg/kg), dissolved in DMSO 10%, Kolliphor® EL 10%, PEG-400 20% and PBS 60% (QR20 was also dissolved in DMSO 10%, PBS 90%). For each time point (15 minutes, 30 minutes, […], 1 hour, 2 hours and 6 hours), 3 mice were sacrificed and blood was collected by cardiac puncture. Thereafter, the plasma level of each compound was measured by mass spectrometry.

Chain of Cdc42 (P60953 whole entry): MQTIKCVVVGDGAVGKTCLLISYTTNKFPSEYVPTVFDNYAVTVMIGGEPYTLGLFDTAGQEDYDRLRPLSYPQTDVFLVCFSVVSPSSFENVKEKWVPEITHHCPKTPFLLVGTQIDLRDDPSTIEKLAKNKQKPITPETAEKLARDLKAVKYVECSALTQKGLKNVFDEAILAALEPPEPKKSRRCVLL
Chain of RhoA (P61586 whole entry): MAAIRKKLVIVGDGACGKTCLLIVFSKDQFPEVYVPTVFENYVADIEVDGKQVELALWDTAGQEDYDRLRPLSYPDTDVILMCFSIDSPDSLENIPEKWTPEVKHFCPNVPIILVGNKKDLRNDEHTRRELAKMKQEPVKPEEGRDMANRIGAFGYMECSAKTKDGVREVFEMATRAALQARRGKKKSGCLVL

NC(=S)[C@@H]1O[C@H](COCc2ccc(F)cc2)[C@@H](OCc2ccc(F)cc2)[C@H]1OCc1ccc(F)cc1 [M36]
active Ran-GTP levels (pull-down) [1]: concentration-dependent decrease in Ran-GTP levels | NHEJ pathway (53BP1 foci) ([2]; after gamma-irradiation): inhibiting the HR and NHEJ pathways | nuclear localization of 53BP1 ([2]; cytoplasmic staining): interferes with the nuclear localization of 53BP1 | effect on prostate cancer cell lines [3]: also effective in prostate cancer cell lines | activation of Cdc42 (Cdc42-GTP levels) [4]: does not inhibit the activation | binding to the immobilized Ran protein [5]: concentration-dependent binding | Ran-GTP levels by immunofluorescence [6]: no detectable levels of Ran-GTP | IC50 ([7]; Homo sapiens, TOV112D, read-out: IC50 value for the TOV112D cell line by clonogenic assay): 10 ± 0.36 µM | colony formation of TOV112D cells ([7]; single dose 10 μM): inhibited colony formation of TOV112D cells | tolerance [8]: well tolerated | weight loss [8]: no weight loss | Rac1-GTP levels (pull-down) [9]: no decreased levels of Rac1-GTP | inhibition of cell proliferation with DA Ran overexpression [10]: attenuated when DA Ran was overexpressed | effect on normal ARPE-19 cell line in detailed clonogenic assay ([11]; different concentrations): almost no effect | colony formation of ARPE-19 cells ([11]; single dose 10 μM): without affecting the ARPE-19 cells | DNA damage (γH2AX foci) ([12]; 48 hours or 72 hours treatment): increases DNA damage | DNA double-strand breaks repair (γH2AX foci clearance) ([12]; after gamma-irradiation): delays DNA double-strand breaks repair | apoptosis (cleaved PARP on Western blot) [13]: induced cell apoptosis | activation of RhoA (RhoA-GTP levels) [14]: does not inhibit the activation | cell proliferation of other aneuploid EOC cells [15]: inhibited cell proliferation | HR pathway (RAD51/Geminin foci) [16]: inhibiting the HR and NHEJ pathways | pharmacokinetics profile based on AUC values ([17]; 50 mg/kg): good pharmacokinetics profiles | absorption after intraperitoneal vs intravenous injection (plasma levels) ([17]; 50 mg/kg single injection): less absorbed than compound QR20 | persistence in the circulation ([17]; 50 mg/kg single injection): persists longer in the circulation
